Measured values: US20240277666A1, “Combination Treatments for Cancer Patients and Methods for Identifying Same” (Scandion Oncology A/S, priority 2021, published 2024)

Tests used:
UGT1A1 [1] = target: T1, UGT1A1 (Homo sapiens, UniProt P22309); assay: in vitro UGT1A1 inhibition assay; assay type: biochemical; conditions: read-out: IC50 towards UGT1A1
T1 sequence (P22309 26-533): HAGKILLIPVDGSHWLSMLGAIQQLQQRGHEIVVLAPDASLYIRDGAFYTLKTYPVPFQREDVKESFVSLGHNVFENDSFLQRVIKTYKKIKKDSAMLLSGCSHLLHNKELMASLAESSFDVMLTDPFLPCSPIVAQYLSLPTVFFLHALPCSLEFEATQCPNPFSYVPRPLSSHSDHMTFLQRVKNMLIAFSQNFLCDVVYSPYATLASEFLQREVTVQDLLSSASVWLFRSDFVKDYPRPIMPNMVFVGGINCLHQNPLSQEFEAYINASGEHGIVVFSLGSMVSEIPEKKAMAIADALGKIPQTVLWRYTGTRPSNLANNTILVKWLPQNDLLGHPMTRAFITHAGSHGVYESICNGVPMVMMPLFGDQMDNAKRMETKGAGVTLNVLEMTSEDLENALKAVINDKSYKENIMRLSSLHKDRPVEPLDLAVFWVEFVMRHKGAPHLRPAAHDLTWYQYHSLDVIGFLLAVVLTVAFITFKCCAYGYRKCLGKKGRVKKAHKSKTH
From the text: The term “UGT1A1 inhibitor” as used herein refers to a molecule which is capable of binding to the enzyme uridine diphosphate (UDP)-glycuronosyl transferase (UGT1A1) and decrease the enzymatic activity of UGT1A1. The UGT1A1 enzyme, primarily found in the liver, is responsible for the gluronidation of bilirubin, converting it from the toxic form of bilirubin (unconjugated bilirubin) to its nontoxic, water-soluble form (conjugated bilirubin). Whether or not a particular molecule is an UGT1A1 inhibitor can be determined by examining the molecule's IC50 in vitro in common UGT1A1 inhibition assays. […] In one embodiment, the IC50 is 5 μM or less, such as 4 μM or less, such as 3 μM or less, such as 2 μM or less, for example between 0.1 μM and 2.0 μM. […] In some embodiments, the UGT1A1 inhibitor of the present disclosure is a non-competitive UGT1A1 inhibitor. In some embodiments, the UGT1A1 inhibitor is a competitive UGT1A1 inhibitor. In one embodiment, the UGT1A1 inhibitor is also SRPK1 inhibitor and/or an ABCG2 inhibitor.

UGT1A1 [2] = target: T1, UGT1A1; assay: Clinical study of SCO-101 with FOLFIRI: serum bilirubin / bilirubin index as surrogate of UGT1A1 activity; assay type: in vivo; set-up: from tissue; host or cells: patients in vivo (enzyme primarily in the liver); conditions: for mean bilirubin index score (day 12 / day 7 bilirubin serum concentration): cohort 1 (150 mg SCO-101), cycle 1; for highest bilirubin index score / lowest bilirubin index score: cohort 1, cycle 1
Protocol: The term “bilirubin index” as used herein or “bilirubin index score” which are used interchangeably, refer to a patient's rate of bilirubin normalization subsequent to administration of an UGT1A1 inhibitor to the patient. Herein, the bilirubin index is determined subsequent to administration of an UGT1A1 inhibitor to the patient for a number of consecutive days, such as 1, 2, 3, 4, 5, or 6, preferably 6 days. In some embodiments, based on 6 consecutive days of administration with an UGT1A1 inhibitor, the bilirubin index can be determined as the bilirubin serum concentration (unconjugated or total bilirubin) on day 12 divided with the bilirubin serum concentration on day 7 and thus is an indicator of how much the patients' UGT1A1 activity has normalized following cessation of treatment with the UGT1A1 inhibitor, such as SCO-101, and can be determined using bilirubin as a surrogate marker. Based on 6 consecutive days of administration with an UGT1A1 inhibitor, the bilirubin index is determined as the bilirubin serum concentration (unconjugated or total bilirubin) on day 12 divided with the bilirubin serum concentration on day 7 and thus is an indicator of how much the patients' UGT1A1 activity has normalized following cessation of SCO-101 treatment, and can be determined using bilirubin as a surrogate marker. In some embodiments, the bilirubin index is determined by comparison on bilirubin serum concentrations obtained from other days than day 7 and day 12. The bilirubin index is also referred to herein as the CT2/CT1 ratio, wherein CT1 is the plasma concentration of unconjugated bilirubin in the patient at a time point T1, whereas CT2 is the plasma concentration of unconjugated bilirubin in the patient at a time point T2 which is after discontinuing administration of the UGT1A1 inhibitor.
Bilirubin: Blood sampling for analysis of bilirubin (total, unconjugated and conjugated) were withdrawn at Screening (up to 4 weeks prior start of treatment), day 5, day 7 and day 12 in the first treatment cycle.
UGT1A1 is the primary enzyme responsible for conjugation of bilirubin and metabolism of Irinotecan's active metabolite SN-38.

IC50 (UGT1A1 [1]): 700 to 1900 nM
effect on unconjugated bilirubin serum concentration (UGT1A1 [2]; cancer patients, SCO-101 daily days 1-6): specific and dose dependent increase
reversibility of UGT1A1 inhibition / bilirubin increase after discontinuation of SCO-101 (UGT1A1 [2]; cancer patients, blood bilirubin after last SCO-101 treatment): completely reversible
bilirubin index of patients with RAS mutation (UGT1A1 [2]; cohort 1, cycle 1, day 12 / day 7): above 0.4
mean bilirubin index score (day 12 / day 7 bilirubin serum concentration) (UGT1A1 [2]; six RAS mutated patients): 0.59
highest bilirubin index score (UGT1A1 [2]; six RAS mutated patients): 0.76
lowest bilirubin index score (UGT1A1 [2]; six RAS mutated patients): 0.25
mean bilirubin index score (day 12 / day 7 bilirubin serum concentration) (UGT1A1 [2]; six RAS wild type patients): approximately 0.15
highest bilirubin index score (UGT1A1 [2]; six RAS wild type patients): 0.28
lowest bilirubin index score (UGT1A1 [2]; six RAS wild type patients): 0.04
SMILES: O=C(Nc1cc(C(F)(F)F)cc(C(F)(F)F)c1)Nc1ccc(Br)cc1-c1nnn[nH]1 [SCO-101]
